Patent US20190307843A1, “SINGLE DOSE METHODS FOR PREVENTING AND TREATING FUNGAL INFECTIONS” (Cidara Therapeutics, Inc., priority 2016, published 2019)
Where two headings read alike, the source gives them in different places. Starred links: 1 amine or outer side, 2 acyl side, 3 side chain; linkers in the order of their positions; H or OH if unused. Positions of bridges follow the written chain, without caps; N, C: chain ends. Non-standard residues stand in square brackets, D forms with d. Residues, ends and D or L forms follow the SMILES beside them. *: point of attachment. Orn(4R-OH,5R-OCH2CH2NMe3+) = C[N+](C)(C)CCO[C@@H](N[*:3])[C@H](O)C[C@H](N[*:1])C(=O)[*:2]; pTerphenylCO(4''-OnC5H11) = CCCCCOc1ccc(-c2ccc(-c3ccc(C(=O)*)cc3)cc2)cc1; hTyr(3S-OH,4S-OH) = N[C@H](C(=O)O)[C@H](O)[C@@H](O)c1ccc(O)cc1; Pro(3S-OH,4S-Me) = C[C@H]1CN[C@H](C(=O)O)[C@H]1O; Hyp = O=C(O)[C@@H]1C[C@@H](O)CN1

Columns and labels:
Candida auris strains = test: Candida auris antifungal susceptibility testing (CLSI M27-A3), 38 strains; format: cell-based; details: for MIC: Candidozyma auris, 48 h, read-out: MIC
[1] = test system: C. albicans SC-5314 biofilms; test: Adhesion phase biofilms (prevention), XTT metabolic activity and CSLM; format: cell-based, Candida albicans
[2] = test system: C. albicans SC-5314 biofilms; test: Mature phase biofilms (treatment), XTT metabolic activity and CSLM; format: cell-based, Candida albicans
[3] = format: in vivo, rat; details: all treatment dose and duration
Description: The rats were monitored at a frequency appropriate for their clinical condition. Rat weights were recorded at least once daily to ensure animals remained within ethical limits.

[4] = test system: A. fumigatus strain AF293; test: Murine model of pulmonary aspergillosis (Example 13), terminal lung burden; format: in vivo, Aspergillus fumigatus
Description: A secondary endpoint for the study was terminal lung tissue burden. Immediately following confirmation of death, carcasses were frozen at −20° C. prior to tissue dissection and processing. The frozen carcasses were thawed at room temperature and the lungs removed and placed into pre-weighed bead-beating tubes containing 2 mL of PBS and subjected to mechanical disruption. Organ homogenates were diluted further in PBS and quantitatively cultured for A. fumigatus onto SABC and incubated at 30° C. for 24-48 hours. In addition, a 300 μL aliquot of the undiluted lung tissue homogenate was stored at −80° C. for possible optional assessment of burden by qPCR.

[5] = CD101 0.25 and 1 μg/ml, 24 h, vs untreated

SMILES: CCCCCOc1ccc(-c2ccc(-c3ccc(C(=O)N[C@H]4C[C@@H](O)[C@@H](OCC[N+](C)(C)C)NC(=O)[C@@H]5[C@@H](O)[C@@H](C)CN5C(=O)[C@H]([C@@H](C)O)NC(=O)[C@H]([C@H](O)[C@@H](O)c5ccc(O)cc5)NC(=O)[C@@H]5C[C@@H](O)CN5C(=O)[C@H]([C@@H](C)O)NC4=O)cc3)cc2)cc1 [CD101] ({pTerphenylCO(4''-OnC5H11)}-[Orn(4R-OH,5R-OCH2CH2NMe3+)]T[Hyp][hTyr(3S-OH,4S-OH)]T[Pro(3S-OH,4S-Me)]; lactam 1-C)
- MIC (Candida auris strains; strain 20 VCPI 511/P/14): 0.25 µg/mL
- MIC (Candida auris strains; strain 21 VCPI 512/P/14): 0.25 µg/mL
- MIC (Candida auris strains; strain 22 VCPI 513/P/14): 0.5 µg/mL
- MIC (Candida auris strains; strain 23 VCPI 514/P/14): 0.5 µg/mL
- MIC (Candida auris strains; strain 24 VCPI 250/P/14): 0.25 µg/mL
- MIC (Candida auris strains; strain 25 VCPI 265/P/14): > 16 µg/mL
- MIC (Candida auris strains; strain 26 VCPI 266/P/14): 0.25 µg/mL
- MIC (Candida auris strains; strain 27 VCPI 462/P/14): > 16 µg/mL
- MIC (Candida auris strains; strain 28 VCPI 463/P/14): 0.125 µg/mL
- MIC (Candida auris strains; strain 29 VCPI 467/P/14): 0.25 µg/mL
- MIC (Candida auris strains; strain 30 VCPI 471a/P/14): > 16 µg/mL
- MIC (Candida auris strains; strain 31 VCPI 478/P/14): 1 µg/mL
- MIC (Candida auris strains; strain 32 VCPI 518/P/14): 0.5 µg/mL
- MIC (Candida auris strains; strain 33 VCPI 550/P/14): 1 µg/mL
- MIC (Candida auris strains; strain 34 VCPI 714/P/14): 0.25 µg/mL
- MIC (Candida auris strains; strain 35 VCPI 717/P/14): 0.25 µg/mL
- MIC (Candida auris strains; strain 36 VCPI 1060/P/14): 0.25 µg/mL
- MIC (Candida auris strains; strain 37 VCPI 74/P/15): 0.25 µg/mL
- MIC (Candida auris strains; strain 38 VCPI 213/P/15): 0.25 µg/mL
- number of resistant isolates (Candida auris strains; of 38 C. auris isolates): 4
- biofilm formation by metabolic activity (XTT) [1, 5]: formed significantly less biofilms compared to untreated C. albicans
- thickness of biofilms ([1]; exposure to CD101, untreated control 36 μm): 4 μm
- metabolic activity (XTT) of mature biofilms [2, 5]: significantly less metabolic activity
- thickness of biofilms ([2]; CD101, untreated control 43 μm): 24 μm
- tolerability [3]: well tolerated with no adverse events observed
- Group Geometric mean (lung burden) ([4]; CD101 5 mg/kg IP Day 0): 5.65 × 10^4 CFU/g
- Log10 Group Geometric mean (lung burden) ([4]; CD101 5 mg/kg IP Day 0): 4.75 CFU/g
- Log10 reduction from vehicle control ([4]; CD101 5 mg/kg IP Day 0): −0.98 CFU/g
- Group Geometric mean (lung burden) ([4]; CD101 5 mg/kg IP Day −1): 3.75 × 10^4 CFU/g
- Log10 Group Geometric mean (lung burden) ([4]; CD101 5 mg/kg IP Day −1): 4.57 CFU/g
- Log10 reduction from vehicle control ([4]; CD101 5 mg/kg IP Day −1): −0.80 CFU/g
- Group Geometric mean (lung burden) ([4]; CD101 5 mg/kg IP Day −3): 5.71 × 10^4 CFU/g
- Log10 Group Geometric mean (lung burden) ([4]; CD101 5 mg/kg IP Day −3): 4.76 CFU/g
- Log10 reduction from vehicle control ([4]; CD101 5 mg/kg IP Day −3): −0.98 CFU/g
- Group Geometric mean (lung burden) ([4]; CD101 5 mg/kg IP Day −5): 6.36 × 10^4 CFU/g
- Log10 Group Geometric mean (lung burden) ([4]; CD101 5 mg/kg IP Day −5): 4.80 CFU/g
- Log10 reduction from vehicle control ([4]; CD101 5 mg/kg IP Day −5): −1.03 CFU/g
- Group Geometric mean (lung burden) ([4]; CD101 10 mg/kg IP Day −1): 5.17 × 10^3 CFU/g
- Log10 Group Geometric mean (lung burden) ([4]; CD101 10 mg/kg IP Day −1): 3.71 CFU/g
- Log10 reduction from vehicle control ([4]; CD101 10 mg/kg IP Day −1): 0.06 CFU/g
- Group Geometric mean (lung burden) ([4]; CD101 10 mg/kg IP Day −3): 7.34 × 10^3 CFU/g
- Log10 Group Geometric mean (lung burden) ([4]; CD101 10 mg/kg IP Day −3): 3.87 CFU/g
- Log10 reduction from vehicle control ([4]; CD101 10 mg/kg IP Day −3): −0.09 CFU/g
- Group Geometric mean (lung burden) ([4]; CD101 10 mg/kg IP Day −5): 3.40 × 10^4 CFU/g
- Log10 Group Geometric mean (lung burden) ([4]; CD101 10 mg/kg IP Day −5): 4.53 CFU/g
- Log10 reduction from vehicle control ([4]; CD101 10 mg/kg IP Day −5): −0.76 CFU/g
- Group Geometric mean (lung burden) ([4]; CD101 20 mg/kg IP Day −1): 1.12 × 10^4 CFU/g
- Log10 Group Geometric mean (lung burden) ([4]; CD101 20 mg/kg IP Day −1): 4.05 CFU/g
- Log10 reduction from vehicle control ([4]; CD101 20 mg/kg IP Day −1): −0.28 CFU/g
- Group Geometric mean (lung burden) ([4]; CD101 20 mg/kg IP Day −3): 4.92 × 10^4 CFU/g
- Log10 Group Geometric mean (lung burden) ([4]; CD101 20 mg/kg IP Day −3): 4.69 CFU/g
- Log10 reduction from vehicle control ([4]; CD101 20 mg/kg IP Day −3): −0.92 CFU/g
- Group Geometric mean (lung burden) ([4]; CD101 20 mg/kg IP Day −5): 8.35 × 10^3 CFU/g
- Log10 Group Geometric mean (lung burden) ([4]; CD101 20 mg/kg IP Day −5): 3.92 CFU/g
- Log10 reduction from vehicle control ([4]; CD101 20 mg/kg IP Day −5): −0.15 CFU/g
- animals completely cleared of CFU burden (Candida albicans SC5314; CD101 SC 1 mg/kg, by 24 hr): 4 of 5
- kidney CFU compared with the vehicle control (Candida albicans SC5314; CD101 SC 1, 3, and 10 mg/kg, 24 hr): significant reduction in kidney CFU
- CFU clearance (Candida albicans SC5314; CD101 SC 3 or 10 mg/kg, 24 hr): complete CFU clearance
